Results taken from patent US4927659A, “Tris-hydroxymethyl lower alkane esters as fat mimetics” (Nabisco Brands, Inc., priority 1989, dated 1990).

Key:
[1] = test system: porcine pancreatic lipase; assay: in vitro digestibility: hydrolysis by pancreatic lipase (TLC densitometry); assay type: in vitro ADME; conditions: in 10 minutes, triglyceride control, 37° C., pH 7.1
Procedure: This example outlines the procedure for estimating the in vitro digestibility of the synthetic fat mimetics of this invention.
1. Buffer: A pH 7.1 phosphate buffer is prepared by dissolving 6.8 g. KH2 PO4 in 1 L. of millipore filtered water (to yield 0.05 M phosphate). Fifty mg. Ca(NO3)2 and 5.0 g. cholic acid (Na salt, an ox bile isolate from Sigma) are added to give 300 microM Ca^++ and 0.5 % cholic acid in 0.05 M phosphate. The pH is adjusted to approximately 7.1 with solid NaOH. Several drops of Baker "Resi-analyzed" toluene are added to prevent bacterial growth during storage at 3-5° C.
2. Lipase: About 15 mg./mL commercial porcine pancreatic lipase from U.S. Biochemical Corporation is dissolved in buffer.
3. Substrates and Standards: A 1.0 mL volumetric flask is charged with an amount of lipid substrate (test substance or standard) calculated to give a concentration of 200 nanomoles per microliter in Baker "Resi-analyzed" toluene. (The proper concentration may be approximated by […] the molecular weight of the lipid in question, dividing by 10, and diluting to the mark; this yields about 200 nanomoles per microliter.) This preparation affords the substrate to be used in the hydrolysis reactions. […]

[2] = in vivo animal feeding study for caloric availability (body weight gain); set-up: species or system male Sprague-Dawley rats; conditions: rats, diet of 50% fort and 21% test compound, 14 days
From the text: This example illustrates how the novel fat mimetics of this invention are screened for caloric availability by a carefully controlled in vivo animal feeding study.
An experimental relationship between total calories ingested and animal body weight gain is established by monitoring the body weight gain associated with consumption of a nutritionally balanced diet containing varying concentrations of a reference substance such as corn oil which has a known caloric availability. Correlations between total calories ingested and body weight gain are excellent (r=0.99).
Caloric availability of an unknown substance is evaluated by substituting a specific weight of the unknown substance for the reference substance and observing the body weight gain. The gain in body weight is equated to a total number of calories using the correlation previously established for the reference data. The estimated number of calories ingested are divided by the weight of unknown substance to give the apparent calories per gram for the unknown substance. Generally speaking, in these bioavailability studies, the degree of perianal pelt soiling correlates with reduced bioavailability.
The test animals are six-week-old male Sprague-Dawley rats obtained from the Portage, Mich. facility of the Charles River Laboratories, Inc. After acclimation for 15 days, the test duration is 14 days. […]

hydrolysis by pancreatic lipase [1]	SMILES	caloric availability (kcal/gram upon being metabolized) [2]
substantially hydrolyzed	CCCCCCCC/C=C\CCCCCCCC(=O)OCC(COC(=O)CCCCCCC/C=C\CCCCCCCC)OC(=O)CCCCCCC/C=C\CCCCCCCC [triolein]	–
–	CCCCCCCC/C=C\CCCCCCCC(=O)OCC(C)(COC(=O)CCCCCCC/C=C\CCCCCCCC)COC(=O)CCCCCCC/C=C\CCCCCCCC [Example 1, 1,1,1-Tris-hydroxymethylethane trioleate]	about 3.3 kcal/gram
